Data: publication PMC11001709, “Anti-toxoplasma activity and DNA-binding of copper(II) and zinc(II) coordination compounds with 5-nitroimidazole-based ligands” (Journal of Biological Inorganic Chemistry, 2023)

Test system: not listed separately
Assay: Distribution coefficient LogD7.4, shake-flask 1-octanol/MOPS buffer
Format: physicochemical
Settings: octanol/water (MOPS buffer 10^–2 M), 25 °C, 3 h
Experimental: Solutions between 100 and 10 µM of the free ligands (cenz and onz) and the coordination compounds 3–10 were prepared in a MOPS buffer pH 7.4 as the aqueous phase and in 1-octanol as the organic phase. The absorption at 320 nm and 310 nm was determined for the aqueous and organic phase respectively by electronic spectroscopy (UV–Vis). Through a linear regression (concentration vs. absorption) the molar extinction coefficient of each compound in both phases was determined (Table 3). The lipophilicity was calculated in the 1-octanol/water system from the shake flask method using Eq. 1 [39]:1 […] where, Co is the final concentration in the organic phase and Cw is the final concentration in the aqueous phase (MOPS buffer at 10^–2 M pH 7.4). Both phases were presaturated with 50 µM solutions of the free ligands or 500 µM of each coordination compound and their UV spectrum was recorded. Both phases were combined and kept stirring for 3 h at 25 °C and in the absence of light. Subsequently, the mixture was centrifuged at 400g and the concentration in both phases was determined by UV–Vis spectroscopy using the Beer-Lambert law. The assays were performed in triplicate.
The T gondii parasite is an apicomplex organism; it requires a host cell to live, so it is important that the drugs used against the parasite have easy access to the cell. The lipophilicity of a compound is an important physicochemical property to determine its ability to permeate the biological membrane through passive diffusion; which usually is measured from the distribution coefficient logD7.4 = log(Co/Cw), in n-octanol/water. The shake-flask method was used to determine the LogD7.4 values from the molar extinction coefficients of the coordination compounds and the ligands in the two solvents (Table 3).

Row | Compound | LogD7.4
1 | Cc1ncc([N+](=O)[O-])n1CC(O)CCl.Cc1ncc([N+](=O)[O-])n1CC(O)CCl.[Cl-].[Cl-].[Cu+2] (centres unmarked) [[Cu(onz)2Cl2]] | 0.61
2 | Cc1ncc([N+](=O)[O-])n1CCCl.Cc1ncc([N+](=O)[O-])n1CCCl.[Br][Zn][Br] [[Zn(cenz)2Br2]] | 0.82
3 | Cc1ncc([N+](=O)[O-])n1CCCl.Cc1ncc([N+](=O)[O-])n1CCCl.[Cl][Cu][Cl] [[Cu(cenz)2Cl2]] | 0.69

Test system: pBR322 plasmid DNA
Assay: Agarose gel electrophoresis, DNA cleavage
Format: biochemical
Settings: compound 10 (mM in the source), + H2Asc
Experimental: Electrophoresis assays were performed in 1.5% agarose gel and 1× TBE buffer using the DNA plasmid pBR322. The plasmid (15 µM base pairs) was incubated with 10 and 50 μM concentrations of the coordination compounds for 1 h at 37 °C in presence and absence of ascorbic acid (50 μM) as reducing agent and hydrogen peroxide (500 µM) as ROS generator in a final volume of 20 μL. The DNA-cleaving compound [Cu(phen)2(H2O)](NO3)2 was used as reference. The samples were loaded into the gel with 4 μL of a loading buffer (30% glycerol, 5 mM xylene cyanol), and electrophoresis was performed in 1× TBE at 100 V for 1 h in a Bio-Rad horizontal tank. Subsequently, the gel was stained with SYBR™ Safe overnight and images were acquired with a Gel Doc EZ Imager instrument (Bio-Rad).
Distinct forms of pBR322 plasmid DNA are commonly observed by gel electrophoresis due to the conformational changes that present distinct electrophoretic mobility: (1) supercoiled DNA (Form I) that migrates faster on the gel, (2) circular nicked (Form II), obtained from a one-strand scission, has a slower migration through the gel and (3) linear form (Form III) is generated when both strands are cleaved and migrates between forms I and II [54]. The interaction of the free ligands and their copper(II) and zinc(II) coordination compounds with pBR322 was investigated in presence of H2Asc (50 μM) as reducing agent and H2O2 (500 μM) as ROS generator. Solutions of 10 and 50 µM of the coordination compounds were incubated with the DNA at 37 °C for 1 h.

Row | Compound | %Damage | %Nicked | %Supercoiled
4 | Cc1ncc([N+](=O)[O-])n1CC(O)CCl.Cc1ncc([N+](=O)[O-])n1CC(O)CCl.[Cl-].[Cl-].[Cu+2] (centres unmarked) [[Cu(onz)2Cl2]] | 58.10% | 33.00% | 41.90%
5 | Cc1ncc([N+](=O)[O-])n1CCCl.Cc1ncc([N+](=O)[O-])n1CCCl.[Br][Zn][Br] [[Zn(cenz)2Br2]] | 28.40% | 6.40% | 71.60%
6 | Cc1ncc([N+](=O)[O-])n1CCCl.Cc1ncc([N+](=O)[O-])n1CCCl.[Cl][Cu][Cl] [[Cu(cenz)2Cl2]] | 33.20% | 16.60% | 66.80%

Same assay, conditions: compound 10 (mM in the source), + H2Asc + H2O2

Row | Compound | %Damage | %Nicked | %Supercoiled
7 | Cc1ncc([N+](=O)[O-])n1CC(O)CCl.Cc1ncc([N+](=O)[O-])n1CC(O)CCl.[Cl-].[Cl-].[Cu+2] (centres unmarked) [[Cu(onz)2Cl2]] | 80.60% | 46.50% | 19.40%
8 | Cc1ncc([N+](=O)[O-])n1CCCl.Cc1ncc([N+](=O)[O-])n1CCCl.[Br][Zn][Br] [[Zn(cenz)2Br2]] | 89.00% | 75.80% | 11.00%
9 | Cc1ncc([N+](=O)[O-])n1CCCl.Cc1ncc([N+](=O)[O-])n1CCCl.[Cl][Cu][Cl] [[Cu(cenz)2Cl2]] | 100.00% |  | 

Same assay, conditions: compound 10 (mM in the source), + H2O2

Row | Compound | %Damage | %Nicked | %Supercoiled
10 | Cc1ncc([N+](=O)[O-])n1CC(O)CCl.Cc1ncc([N+](=O)[O-])n1CC(O)CCl.[Cl-].[Cl-].[Cu+2] (centres unmarked) [[Cu(onz)2Cl2]] | 16.40% | 6.10% | 83.60%
11 | Cc1ncc([N+](=O)[O-])n1CCCl.Cc1ncc([N+](=O)[O-])n1CCCl.[Br][Zn][Br] [[Zn(cenz)2Br2]] | 19.30% | 27.20% | 80.70%
12 | Cc1ncc([N+](=O)[O-])n1CCCl.Cc1ncc([N+](=O)[O-])n1CCCl.[Cl][Cu][Cl] [[Cu(cenz)2Cl2]] | 83.50% | 84.30% | 16.50%

Same assay, conditions: compound 10 (mM in the source), no additive

Row | Compound | %Damage | %Nicked | %Supercoiled
13 | Cc1ncc([N+](=O)[O-])n1CC(O)CCl.Cc1ncc([N+](=O)[O-])n1CC(O)CCl.[Cl-].[Cl-].[Cu+2] (centres unmarked) [[Cu(onz)2Cl2]] | 36.40% | 6.40% | 63.60%
14 | Cc1ncc([N+](=O)[O-])n1CCCl.Cc1ncc([N+](=O)[O-])n1CCCl.[Br][Zn][Br] [[Zn(cenz)2Br2]] | 6.20% | 3.00% | 93.80%
15 | Cc1ncc([N+](=O)[O-])n1CCCl.Cc1ncc([N+](=O)[O-])n1CCCl.[Cl][Cu][Cl] [[Cu(cenz)2Cl2]] | 12.00% |  | 88.00%

Same assay, conditions: compound 50 (mM in the source), + H2Asc

Row | Compound | %Damage | %Nicked | %Supercoiled
16 | Cc1ncc([N+](=O)[O-])n1CC(O)CCl.Cc1ncc([N+](=O)[O-])n1CC(O)CCl.[Cl-].[Cl-].[Cu+2] (centres unmarked) [[Cu(onz)2Cl2]] | 100.00% |  | 
17 | Cc1ncc([N+](=O)[O-])n1CCCl.Cc1ncc([N+](=O)[O-])n1CCCl.[Br][Zn][Br] [[Zn(cenz)2Br2]] | 96.10% | 39.50% | 3.90%
18 | Cc1ncc([N+](=O)[O-])n1CCCl.Cc1ncc([N+](=O)[O-])n1CCCl.[Cl][Cu][Cl] [[Cu(cenz)2Cl2]] | 100.00% |  | 

Same assay, conditions: compound 50 (mM in the source), + H2Asc + H2O2

Row | Compound | %Damage | %Nicked | %Supercoiled
19 | Cc1ncc([N+](=O)[O-])n1CC(O)CCl.Cc1ncc([N+](=O)[O-])n1CC(O)CCl.[Cl-].[Cl-].[Cu+2] (centres unmarked) [[Cu(onz)2Cl2]] | 100.00% |  | 
20 | Cc1ncc([N+](=O)[O-])n1CCCl.Cc1ncc([N+](=O)[O-])n1CCCl.[Br][Zn][Br] [[Zn(cenz)2Br2]] | 78.40% | 10.40% | 21.60%
21 | Cc1ncc([N+](=O)[O-])n1CCCl.Cc1ncc([N+](=O)[O-])n1CCCl.[Cl][Cu][Cl] [[Cu(cenz)2Cl2]] | 100.00% |  | 

Same assay, conditions: compound 50 (mM in the source), + H2O2

Row | Compound | %Damage | %Nicked | %Supercoiled
22 | Cc1ncc([N+](=O)[O-])n1CC(O)CCl.Cc1ncc([N+](=O)[O-])n1CC(O)CCl.[Cl-].[Cl-].[Cu+2] (centres unmarked) [[Cu(onz)2Cl2]] | 100.00% |  | 
23 | Cc1ncc([N+](=O)[O-])n1CCCl.Cc1ncc([N+](=O)[O-])n1CCCl.[Br][Zn][Br] [[Zn(cenz)2Br2]] | 98.40% | 63.30% | 1.60%
24 | Cc1ncc([N+](=O)[O-])n1CCCl.Cc1ncc([N+](=O)[O-])n1CCCl.[Cl][Cu][Cl] [[Cu(cenz)2Cl2]] | 100.00% |  | 

Same assay, conditions: compound 50 (mM in the source), no additive

Row | Compound | %Damage | %Nicked | %Supercoiled
25 | Cc1ncc([N+](=O)[O-])n1CC(O)CCl.Cc1ncc([N+](=O)[O-])n1CC(O)CCl.[Cl-].[Cl-].[Cu+2] (centres unmarked) [[Cu(onz)2Cl2]] | 33.80% | 9.70% | 66.20%
26 | Cc1ncc([N+](=O)[O-])n1CCCl.Cc1ncc([N+](=O)[O-])n1CCCl.[Br][Zn][Br] [[Zn(cenz)2Br2]] | 11.60% | 2.20% | 88.40%
27 | Cc1ncc([N+](=O)[O-])n1CCCl.Cc1ncc([N+](=O)[O-])n1CCCl.[Cl][Cu][Cl] [[Cu(cenz)2Cl2]] | 31.50% |  | 68.50%

Test system: ct-DNA
Assay: Circular dichroism of ct-DNA
Format: binding, calf
Settings: [DNA]b = 50 µM, [complex]/[DNA] 0-2, 1 h 37 °C
Experimental: For the UV–Vis, fluorescence and circular dichroism assays the concentration of ct-DNA was determined on a Varian Cary 100 Scan spectrophotometer from the absorption at 260 nm and the corresponding molar absorptivity of 6600 M^−1 cm^−1 (nucleobase concentration). The stock solutions of the coordination compounds and the free ligands were prepared in cacodylate/NaCl buffer (1 mM cacodylic acid and 20 mM sodium chloride) at pH 7.25. The final samples contained a DMSO concentration of 0.2%.
Circular dichroism (CD) spectra were recorded using a JASCO-815 spectropolarimeter, equipped with xenon-arc lamp of 450 W. The sample compartment was air-purged with N2 before use. For the measurements, a quartz cuvette with an optical path of 5 mm was used. A solution of 25 µM (in base pairs) of ct-DNA in cacodylate/NaCl buffer was incubated for 1 h at 37 °C with increasing amounts of coordination compounds (0–50 µM). The CD spectra were recorded at room temperature.
The interaction of small molecules with DNA can modify these CD signals depending on the type of binding. Intercalative interactions increase the intensity of the signals, as the result of an increase of the stability of the B conformation, whereas groove binding or covalent interactions tend to decrease the intensity of these signals, which are moreover displaced. The CD spectra for both ligands and their copper(II) and zinc(II) complexes were obtained at constant concentration of ct-DNA, increasing the complex concentration up to two equivalents ([complex]/[DNA] ratios of 0, 0.2, 0.4, 1, 2) with respect to the nucleobases concentration ([DNA]b = 50 µM).

Row | Compound | effect on CD spectrum of ct-DNA (bands at 275 and 245 nm)
28 | Cc1ncc([N+](=O)[O-])n1CC(O)CCl.Cc1ncc([N+](=O)[O-])n1CC(O)CCl.[Cl-].[Cl-].[Cu+2] (centres unmarked) [[Cu(onz)2Cl2]] | decrease of the intensity of the positive and negative bands
29 | Cc1ncc([N+](=O)[O-])n1CCCl.Cc1ncc([N+](=O)[O-])n1CCCl.[Br][Zn][Br] [[Zn(cenz)2Br2]] | spectra changes are minor
30 | Cc1ncc([N+](=O)[O-])n1CCCl.Cc1ncc([N+](=O)[O-])n1CCCl.[Cl][Cu][Cl] [[Cu(cenz)2Cl2]] | decrease of the intensity of the positive and negative bands
